Experimental data taken from publication PMC11999280, “Design and screening of novel endosomal escape compounds that enhance functional delivery of oligonucleotides in vitro” (Molecular Therapy. Nucleic Acids, 2025).

How the values were obtained:
Format in all cases: cell-based
[1] = system: mCherry-GAL9 expressing HepG2 cells; assay: GAL9 recruitment assay, HepG2; settings: calculated mean from >3 independent exp.
Outline: (§1)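 Readout is GAL9 relocalization to damaged endosomes, scored as mCherry-GAL9 structures counted in confocal images after fixation in 4% paraformaldehyde and Hoechst 33342 nuclear staining. Compounds were applied in dose-response to stably expressing cells seeded one day earlier; three independent experiments with duplicate wells.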

[2] = system: mCherry-GAL9 expressing SHSY5Y cells; assay: GAL9 recruitment assay, SHSY5Y; settings: calculated mean from >3 independent exp.
Outline: as §1

[3] = system: mCherry-GAL9 expressing NCI-H358 cells; assay: GAL9 recruitment assay, NCI-H358; settings: calculated mean from >3 independent exp.
Outline: as §1

[4] = system: HeLa_Luc705 cells (pLuc/705 splice-switching reporter); assay: Functional 705-SSO delivery, luciferase splice-switching assay; settings: HeLa-Luc705 + 2 µM SSO; EEE 2.5 - 3 µM; mean from >3 independent experiments
Outline: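 Cells seeded at 10,000/well were pre-incubated 24 h with 1–2 μM 2′-O-methyl phosphorothioate 705-SSO, then exposed to endosomal escape enhancer at the stated concentrations. After 24 h, cells were lysed in 0.1% Triton X-100 and firefly luciferase luminescence was read as the splice-correction signal. LF2000 lipofection with 100–200 nM SSO served as transfection control.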

[5] = system: mCherry-GAL9 expressing U2OS cells; assay: GAL9 recruitment assay, U2OS; settings: calculated mean from >3 independent exp.
Outline: as §1

[6] = system: mCherry-GAL9 expressing HEK293 cells; assay: GAL9 recruitment assay, HEK293; settings: calculated mean from >3 independent exp.
Outline: as §1

[7] = system: mCherry-GAL9 expressing HuH7 cells; assay: GAL9 recruitment assay, HuH7; settings: calculated mean from >3 independent exp.
Outline: as §1

[8] = system: mCherry-GAL9 expressing HeLa cells; assay: GAL9 recruitment assay, HeLa; settings: calculated mean from >3 independent exp.
Outline: as §1

[9] = system: mCherry-GAL9 expressing 16HBE cells; assay: GAL9 recruitment assay, 16HBE; settings: calculated mean from >3 independent exp.
Outline: as §1

For `CCOc1nn(C2CCN(C)CC2)cc1Nc1ncc(C(F)(F)F)c(-c2c[nH]c3ccccc23)n1` [EEE15], the “Gal9 response compared to reference” value ([1]; EEE 0.31 µM) was 0.008, the “Gal9 response compared to reference” value ([1]; EEE 0.62 µM) was 0.008 and the “Gal9 response compared to reference” value ([1]; EEE 1.25 µM) was 0.009. The “Gal9 response compared to reference” value ([1]; EEE 2.5 µM) was 0.007, the “Gal9 response compared to reference” value ([1]; EEE 5 µM) was 0.007 and the “Gal9 response compared to reference” value ([1]; EEE 10 µM) was 0.010. For the same compound, the “Gal9 response compared to reference” value ([2]; EEE 0.31 µM) was 0.014, the “Gal9 response compared to reference” value ([2]; EEE 0.62 µM) was 0.017 and the “Gal9 response compared to reference” value ([2]; EEE 1.25 µM) was 0.014. For the same compound, the “Gal9 response compared to reference” value ([2]; EEE 2.5 µM) was 0.016, the “Gal9 response compared to reference” value ([2]; EEE 5 µM) was 0.012 and the “Gal9 response compared to reference” value ([2]; EEE 10 µM) was 0.012. For the same compound, the “Gal9 response compared to reference” value ([3]; EEE 0.31 µM) was 0.013, the “Gal9 response compared to reference” value ([3]; EEE 0.62 µM) was 0.016 and the “Gal9 response compared to reference” value ([3]; EEE 1.25 µM) was 0.017. The “Gal9 response compared to reference” value ([3]; EEE 2.5 µM) was 0.015, the “Gal9 response compared to reference” value ([3]; EEE 5 µM) was 0.016 and the “Gal9 response compared to reference” value ([3]; EEE 10 µM) was 0.011. For the same compound, the “Luciferase expression compared to reference” value [4] was 0.652, the “Gal9 response compared to reference” value ([5]; EEE 0.31 µM) was 0.010 and the “Gal9 response compared to reference” value ([5]; EEE 0.62 µM) was 0.009. The “Gal9 response compared to reference” value ([5]; EEE 1.25 µM) was 0.010, the “Gal9 response compared to reference” value ([5]; EEE 2.5 µM) was 0.009 and the “Gal9 response compared to reference” value ([5]; EEE 5 µM) was 0.014. The “Gal9 response compared to reference” value ([5]; EEE 10 µM) was 0.014, the “Gal9 response compared to reference” value ([6]; EEE 0.31 µM) was 0.020 and the “Gal9 response compared to reference” value ([6]; EEE 0.62 µM) was 0.019. For the same compound, the “Gal9 response compared to reference” value ([6]; EEE 1.25 µM) was 0.015, the “Gal9 response compared to reference” value ([6]; EEE 2.5 µM) was 0.015 and the “Gal9 response compared to reference” value ([6]; EEE 5 µM) was 0.018. For the same compound, the “Gal9 response compared to reference” value ([6]; EEE 10 µM) was 0.022, the “Gal9 response compared to reference” value ([7]; EEE 0.31 µM) was 0.008 and the “Gal9 response compared to reference” value ([7]; EEE 0.62 µM) was 0.007. For the same compound, the “Gal9 response compared to reference” value ([7]; EEE 1.25 µM) was 0.008, the “Gal9 response compared to reference” value ([7]; EEE 2.5 µM) was 0.009 and the “Gal9 response compared to reference” value ([7]; EEE 5 µM) was 0.009. For the same compound, the “Gal9 response compared to reference” value ([7]; EEE 10 µM) was 0.011, the “Gal9 response compared to reference” value ([8]; EEE 0.31 µM) was 0.004 and the “Gal9 response compared to reference” value ([8]; EEE 0.62 µM) was 0.004. For the same compound, the “Gal9 response compared to reference” value ([8]; EEE 1.25 µM) was 0.004, the “Gal9 response compared to reference” value ([8]; EEE 2.5 µM) was 0.005 and the “Gal9 response compared to reference” value ([8]; EEE 5 µM) was 0.004. The “Gal9 response compared to reference” value ([8]; EEE 10 µM) was 0.003, the “Gal9 response compared to reference” value ([9]; EEE 0.31 µM) was 0.006 and the “Gal9 response compared to reference” value ([9]; EEE 0.62 µM) was 0.007. The “Gal9 response compared to reference” value ([9]; EEE 1.25 µM) was 0.007, the “Gal9 response compared to reference” value ([9]; EEE 2.5 µM) was 0.008 and the “Gal9 response compared to reference” value ([9]; EEE 5 µM) was 0.010. The “Gal9 response compared to reference” value ([9]; EEE 10 µM) was 0.034.
